Data from patent US11649238B2, “Substituted pyrazolo[1,5-a]pyrimidines as PI4K inhibitors” (GLAXOSMITHKLINE INTELLECTUAL PROPERTY DEVELOPMENT LIMITED, priority 2018, dated 2023).

Columns and labels:
PI4KIIIβ = PI4KIIIβ (Homo sapiens, UniProt Q9UBF8); assay: Residence Time Assay (Caliper conditioning assay and jump dilution); assay type: biochemical; details: jump dilution, 2 mM ATP, 1 μM Bodipy-PI
Method: Caliper Conditioning Assay
Compound dilutions were prepared in 100% DMSO using a 1 in 3 serial step dilution and a top concentration of 1 mM. A 200 nL stamp from a 12-point titration was transferred to a black 384-well Greiner assay plate ensuring a final DMSO concentration of 1% across the plate and a top final concentration of inhibitor of 10 μM in 20 μL final assay volume. To a well of a 384-well assay plate 10 μL of 2× Enzyme buffer was pre-incubated with compound for 1 h. Buffer without enzyme was used as 100%-inh control. 10 μL of 2× substrate solution was added to initiate the assay such that the final concentrations were 2 mM ATP and 1 μM Bodipy-PI and the plate was incubated at 25° C. for 3 hours. The enzymatic reaction was terminated by adding 40 μL of stop buffer and Substrate (PI) and product (PIP) present in each sample were separated electrophoretically using a LabChip 3000 capillary electrophoresis instrument CALIPER LABCHIP 3000 Drug Discovery System and detected using blue laser (480 nm) for excitation and green CCD (520 nm) for detection (CCD2). Negative control samples (0%-inhibition in the absence of inhibitor) and positive control samples (100%-inhibition, in the absence of enzyme) were assembled in replicates of 48 (4 replicates per caliper sipper) and were used to calculate %-inhibition values in each test well. Percent inhibition (Pinh) was determined using following equation: Pinh=(PSRO %−PSRinh)/(PSRO %−PSR100%)×100
Where PSRinh is the product sum ratio in the presence of inhibitor, PSRO % is the average product sum ratio in the absence of inhibitor and PSR100% is the average product sum ratio in 100%-inhibition control samples; the IC50 values of inhibitors are determined by fitting the inhibition curves (Pinh versus inhibitor concentration) to the 4 parameter sigmoid dose-response model using XLfit 4 software (IBDS).
In a small Eppendorf tube, 5 μL of 2× enzyme solution (0.4 μM-0.8 μM) was mixed with 5 μL 2× compound solution containing 40 to 120-fold the IC50 value determined at 2 mM ATP as described above, and incubated for 1 h at room temperature. The assay was initiated by rapidly mixing 2 μL of the enzyme preincubation mixture with 800 μL substrate mix containing 2 mM ATP and 1 μM Bodipy-PI. 60 μL of each sample was transferred into low volume Greiner 384-well plate, and the Substrate (PI) and product (PIP) present in each sample were separated electrophoretically using a LabChip 3000 capillary electrophoresis instrument CALIPER LABCHIP 3000 Drug Discovery System and detected using blue laser (480 nm) for excitation and green CCD (520 nm) for detection (CCD2) for approximately 8 h (200 measurements from each well). […]

[1] = Spleen Concentration Assay; assay type: in vivo; details: male, Wistar Han, rat, intravenous, 1 mg/kg, intravenous infusion 1 mg/kg over 1 h, single male Wistar Han rat, 12 hours after the start of dosing
Method: e) Spleen Concentration Assay Compounds 17, 18, 19, 22 and 23 were tested in this spleen accumulation assay. Compounds were administered intravenously to rats to determine what the level of the compound in the spleen would be if all of the inhaled dose was absorbed (either orally or through the lungs) and systemic circulation was exposed to the full dose. Compounds 17, 19, 22 and 23 were formulated in 2% DMSO in Kleptose (aq, 10% w/v). Compound 18 was formulated in a 5:45:50 ratio of DMSO:PEG200:water. Formulations were administered as intravenous infusions (1 mg/kg over 1 h) to a single male, Wistar Han rat. 12 hours after the start of dosing, rats were euthanised and spleens were collected. Approximately 0.5 g samples of spleen were taken and homogenised in 4 mL water. 100 μL of the resulting homogenates were prepared by protein precipitation with 300 μL of acetonitrile containing an internal standard and assayed (along with calibration standards prepared in the same manner) by reversed-phase liquid chromatography-mass spectrometry, using a heated electrospray source and operated in the positive ion multiple reaction monitoring mode. The liquid chromatography column used was a Waters Cortecs C18 2.7 μm particle size, 50×2.1 mm column at 60° C., and the mobile phase, operated as a gradient, utilised (A) 0.1% formic acid (aq) and (B) 0.1% formic acid in acetonitrile, operated at a flow rate of 1 mL/min.

Sequence of PI4KIIIβ (Q9UBF8 whole entry): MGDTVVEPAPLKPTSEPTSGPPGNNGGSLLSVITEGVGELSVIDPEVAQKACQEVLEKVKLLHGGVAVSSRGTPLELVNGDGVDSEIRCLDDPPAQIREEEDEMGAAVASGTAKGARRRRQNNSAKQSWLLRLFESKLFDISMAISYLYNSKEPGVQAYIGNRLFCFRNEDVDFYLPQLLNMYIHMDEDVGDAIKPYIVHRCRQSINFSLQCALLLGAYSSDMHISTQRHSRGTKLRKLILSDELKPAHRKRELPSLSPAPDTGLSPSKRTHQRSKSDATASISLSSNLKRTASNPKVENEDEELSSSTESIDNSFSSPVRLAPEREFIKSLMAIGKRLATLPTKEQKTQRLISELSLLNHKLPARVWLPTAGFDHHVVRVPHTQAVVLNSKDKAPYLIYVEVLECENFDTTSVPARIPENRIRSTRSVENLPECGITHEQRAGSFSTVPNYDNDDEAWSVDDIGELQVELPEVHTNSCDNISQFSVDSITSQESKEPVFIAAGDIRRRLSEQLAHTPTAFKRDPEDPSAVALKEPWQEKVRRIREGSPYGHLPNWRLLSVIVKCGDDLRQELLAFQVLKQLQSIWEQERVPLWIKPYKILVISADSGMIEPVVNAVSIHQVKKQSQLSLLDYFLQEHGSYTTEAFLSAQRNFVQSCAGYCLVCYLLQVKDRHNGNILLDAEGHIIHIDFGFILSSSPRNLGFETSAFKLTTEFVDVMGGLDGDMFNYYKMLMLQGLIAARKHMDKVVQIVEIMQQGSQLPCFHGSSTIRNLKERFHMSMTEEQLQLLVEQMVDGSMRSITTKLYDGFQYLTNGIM

In the case of `Cc1ccc(-c2c(C)nn3c(NCc4cccc(-c5nccn5C)c4)cc(C(C)(C)O)nc23)cc1C(=O)N(C)[C@@H](C)CO` [Compound 22, (S)—N-(1-hydroxypropan-2-yl)-5-(5-(2-hydroxypropan-2-yl)-2-methyl-7-((3-(1-methyl-1H-imidazol-2-yl)benzyl)amino)pyrazolo[1,5-a]pyrimidin-3-yl)-N,2-dimethylbenzamide], the residence time (PI4KIIIβ) is reported as 1670 min and the concentration at 12 h [1] is reported as < 7 ng/g.
For `CCN(CCO)C(=O)c1cc(-c2c(C)nn3c(NCc4cccc(-c5nccn5C)c4)cc(C(C)(C)O)nc23)ccc1OC` [Compound 19, N-ethyl-N-(2-hydroxyethyl)-5-(5-(2-hydroxypropan-2-yl)-2-methyl-7-((3-(1-methyl-1H-imidazol-2-yl)benzyl)amino)pyrazolo[1,5-a]pyrimidin-3-yl)-2-methoxybenzamide], the residence time (PI4KIIIβ) was 997 min and the concentration at 12 h [1] was < 7 ng/g.
In the case of `Cc1ccc(-c2c(C)nn3c(NCc4cccc(-c5nccn5C)c4)cc(C(C)(C)O)nc23)cc1C(=O)N(C)CCCO` [Compound 17, 5-(5-(2-Hydroxypropan-2-yl)-2-methyl-7-((3-(1-methyl-1H-imidazol-2-yl)benzyl)amino)pyrazolo[1,5-a]pyrimidin-3-yl)-N-(3-hydroxypropyl)-N,2-dimethylbenzamide], the residence time (PI4KIIIβ) is reported as 542 min.
`COc1ccc(-c2c(C)nn3c(NCc4cccc(-c5nccn5C)c4)cc(C(C)(C)O)nc23)cc1C(=O)N(C)C1CCOCC1` [Compound 21, 5-(5-(2-Hydroxypropan-2-yl)-2-methyl-7-((3-(1-methyl-1H-imidazol-2-yl)benzyl)amino)pyrazolo[1,5-a]pyrimidin-3-yl)-2-methoxy-N-methyl-N-(tetrahydro-2H-pyran-4-yl)benzamide] gave a residence time (PI4KIIIβ) of 528 min.
